We go through 67 compounds from a melting point compilation (Tetko et al.; mined from patent text by program, amines drawn as free bases though some values may be those of a salt).

The compound `CC(C)NC(=S)Nc1cccc(-c2ccnc3c(C(=O)c4cccs4)cnn23)c1` registered a melting point of 208 to 210 °C.

The compound `Cn1c(C(F)(F)F)ccc(-c2cc(S(=O)(=O)Cl)c(Cl)cc2F)c1=O` yielded a melting point of 77 to 78 °C.

`CC(C)COC(=O)C(N)C=CCP(=O)(O)O` (configuration not stated) had a melting point of 163 to 164 °C.

Compound `N#Cc1ccc(NC(=O)C(=O)N2CCC(Cc3ccc(F)cc3)CC2)cc1` yielded a melting point of 167 to 169 °C.

For the compound `Cc1ccc(S(=O)(=O)OC[C@@H](O)Cc2cc3ccccc3[nH]2)cc1`, the melting point is 96 to 97 °C.

Consider `COc1cccc(Cc2ccccc2)c1C(=O)O`, for which the melting point fell in the range of 159 to 161 °C.

Consider `CC(C)OC(=O)c1cc(-n2c(=O)c3c(n(C)c2=O)CCC3)c(F)cc1Cl`, for which the melting point was 111 to 113 °C.

Turning to `COc1ccc2c(=O)c(C#N)c(N)oc2c1`, the melting point came to 300 °C.

With `COC(=O)c1cc(C)sc1NC(=O)C(C)C`, the melting point lay in the range of 63 to 65 °C.

As for `O=C(Nc1cccc(S(=O)(=O)c2ccccn2)c1)C(O)(C(F)(F)F)C(F)(F)F`, the melting point was in the range of 264 to 267 °C.

As to `CCOC(=O)C1=Cc2ccsc2S(=O)(=O)N1c1cccc(OC)c1`, the melting point was 107 to 109 °C.

In turn, `Cc1oc(C=Cc2cccc(C(F)(F)F)c2)nc1CO` registered a melting point of 134 to 135 °C.

As for `CNC(=O)N(O)Cc1ccc(-c2ccccc2)s1`, the melting point is 169 °C.

As to `CCOC(=O)[C@@H](C)OC(=O)c1ccc([N+](=O)[O-])cc1`, the melting point was in the range of 42 to 43 °C.

For `Cc1ccc(C#N)cc1-c1cc2cnc(NC3CCOCC3)nc2n(C)c1=O`, the melting point stood at 254 °C.

Compound `O=C(CCl)NCC(CNC(=O)CCl)OC1CCCCO1` (configuration not stated) had a melting point of 100 °C.

For the compound `CC(C)Oc1ccc(CCCCC2OC(=O)NC2=O)cc1` (configuration not stated), the melting point was 81 to 82 °C.

`N#Cc1c(CF)nn(-c2c(Cl)cc(C(F)(F)F)cc2Cl)c1N` yielded a melting point of 139 to 141 °C.

Take `CCCCCC[C@H](F)CO`: the melting point was in the range of 33 to 35 °C.

`O=Cc1c(O)ccc2cccnc12` yielded a melting point of 127 to 130 °C.

In the case of `COc1cc(Cl)ccc1CC(=O)O`, the melting point is 100 °C.

In the case of `C=CCOc1ccccc1OCC(O)CNC(C)C` (configuration not stated), the melting point lay in the range of 76 to 79 °C.

Consider `COC(=O)c1cc(COc2ccccc2)cc(C(=O)OC)c1`, for which the melting point lay in the range of 95 to 97 °C.

`CC(=O)Nc1ccc2c(c1)CC(N(C)C)C2` (configuration not stated) returned a melting point of 94 to 96 °C.

In turn, `N#CC1CN1C(=O)CCN1C(=O)c2ccccc2C1=O` (configuration not stated) gave a melting point of 168 to 170 °C.

For `CC(=O)Oc1cnccc1CCCOc1cccnc1Cc1cccc(Br)c1`, the melting point was in the range of 122 to 128 °C.

`C#Cc1nc(NOC)c2ncn([C@@H]3O[C@H](CO)[C@@H](O)[C@H]3O)c2n1` registered a melting point of 165 to 167 °C.

`Cn1ccc(NC(=O)c2cc(C#N)cc(C(F)(F)F)n2)n1` displayed a melting point of 190 °C.

In turn, `CC(CNC(=O)CN1CCCC1=O)N1CCN(C)CC1` (configuration not stated) returned a melting point of 84 to 85 °C.

Turning to `CCc1cn2c(=O)c(C(=O)O)cnc2c2ccccc12`, the melting point was 221 to 223 °C.

`COc1ccc(S(=O)(=O)Nc2cc(F)cc3c2Nc2ccc(O)cc2CO3)cc1` had a melting point of 201 to 210 °C.

The compound `O=C(O)COc1ccc(C(=O)c2ccc(F)cc2)c2ccccc12` displayed a melting point of 105 to 108 °C.

Compound `O=C(Nc1nnc(C(F)(F)F)s1)c1ccc2ccccc2c1` had a melting point of 249 to 251 °C.

Consider `CCCCc1c(/C=C/c2ccccc2OCC)nc2ccc(C(=O)O)cn2c1=O`, for which the melting point lay in the range of 265 to 268 °C.

`CS(=O)(=O)Nc1cccc(C(=O)NCCN2CCC(Oc3ccc(Cl)c(Cl)c3)CC2)c1` displayed a melting point of 150 to 151 °C.

For the compound `OCC=Cc1ccsc1`, the melting point lay in the range of 58 to 60 °C.

Turning to `CC(C)NC(=O)C(O)C(Cc1ccccc1)NC(=O)OC(C)(C)C` (mixture of isomers), the melting point lay within 126 to 145 °C.

In turn, `CN1CN(C)C(=N[N+](=O)[O-])N(Cc2cnc(Cl)s2)C1` showed a melting point of 125 to 126 °C.

Regarding `CC(C)n1c(=O)n(C(=O)NC2CCN(C)CC2)c2ccccc21`, the melting point lay within 204 to 205 °C.

For `N#CCNC(=O)C1(NC(=O)c2ccc(N3CCN(C(=O)OCC4c5ccccc5-c5ccccc54)CC3)cc2)CCCCC1`, the melting point was 192 to 194 °C.

On to `O=C(c1cccnc1)N1CC2CCc3ccccc3C2=N1` (configuration not stated), for which the melting point was 141 to 143 °C.

For the compound `O[C@H]1COC(c2ccccc2)=N[C@@H]1c1ccccc1` (racemic), the melting point is 150 °C.

On to `CS(=O)c1nc(-c2ccccc2)cs1` (configuration not stated), for which the melting point is 104 to 105 °C.

`C#CCc1c(C)nc2c(OCc3ccccc3C)nccn12` gave a melting point of 123 to 124 °C.

Consider `CC(=N)Nc1cccc(Br)c1`, for which the melting point fell in the range of 208 to 210 °C.

In turn, `CC(C)(C)OC(=O)ON=C(c1ccccc1)c1ccccc1` had a melting point of 126 to 133 °C.

`COc1cc(C)c(C(=O)c2c(OC)cccc2C(F)(F)F)c(OC)c1OC` displayed a melting point of 69 to 70 °C.

Compound `Cc1ccc2ccccc2c1C1OC(=O)NC1=O` (configuration not stated) gave a melting point of 147 to 150 °C.

In turn, `O=C(O)c1ccc(CCCC2SCC(=O)N2CC#CC2(O)CCCCC2)cc1` (configuration not stated) gave a melting point of 112 to 115 °C.

With `Cc1cccc(=O)c(NC(=O)C2=C(O)c3ccccc3S(=O)(=O)N2C)c1`, the melting point fell in the range of 235 to 242 °C.

Take `CSCCn1cc(Cl)nc(N2CCc3cc(Cl)cc(Cl)c32)c1=O`: the melting point fell in the range of 127 to 128 °C.

Compound `NC(=O)c1ccc(C(N)=O)c(CC(O)CO)c1` (configuration not stated) had a melting point of 194 °C.

Compound `CCOC(=O)c1c(CC)nn2c(-c3cccnc3)ccnc12` came in with a melting point of 119 to 120 °C.

`Cc1nc2c(N)nc3ccccc3c2n1CCCNC(=O)C1CCCCC1` showed a melting point of 234 to 235 °C.

The compound `CCCCC(C)(CC)C(=O)C(Oc1ccc(-c2ccccc2)cc1)n1cnnc1` (configuration not stated) registered a melting point of 67 to 68 °C.

The compound `CN(CSC(C)(C)C)C(=O)Nc1cccc(C(F)(F)F)c1` registered a melting point of 96 to 99 °C.

The compound `CCCc1cc(Cl)c(OC(C(=O)O)c2ccccc2)c(C(C)=O)c1O` (configuration not stated) gave a melting point of 131 to 133 °C.

Turning to `N#CCc1ccnc2c(NC(=O)c3c(Cl)cccc3Cl)cccc12`, the melting point was 234 to 236 °C.

With `O=C(N[C@@H](Cc1c[nH]cn1)C(=O)OCc1ccsc1)C(Cc1cccc2ccccc12)Cc1cccc2ccccc12`, the melting point was in the range of 200 to 203 °C.

With `COc1ccc(CN[C@@H](C(=O)O)[C@@H](O)[C@H](Cc2ccccc2)NC(=O)OC(C)(C)C)cc1`, the melting point lay within 203 to 206 °C.

Regarding `CC(C)(C)OC(=O)N1CCC(Oc2ccccc2C(C)(C)C)C1` (configuration not stated), the melting point was in the range of 81 to 82 °C.

As to `CCOC(=O)c1cc(CC)sc1Nc1cc(C)ccc1[N+](=O)[O-]`, the melting point was in the range of 55 to 57 °C.

`O=C(C(=O)N1CCC(N2CCCCC2)CC1)c1ccc2n1Cc1ccccc1N(C(=O)c1ccc(C3CCCCC3)cc1)C2` came in with a melting point of 190 to 195 °C.

The compound `N[C@H]1CCCC[C@@H]1Nc1ccnc2cc(Cl)ccc12` returned a melting point of 160 °C.

Regarding `CCNc1c(C#N)cnn1-c1c(F)c(F)c(C(F)(F)F)c(F)c1F`, the melting point came to 168 °C.

In turn, `COc1ccc(C)cc1NC(=O)Nc1ccc(N2CCN(C(=O)Nc3ccc(OCCO)cc3C(F)(F)F)CC2)nc1` came in with a melting point of 198 to 200 °C.

`C#CC1(O)c2ccccc2COc2ccccc21` (configuration not stated) had a melting point of 93 to 94 °C.

As usually defined, the melting point is the temperature of the solid-liquid transition.
